Source: US6458806B1, “Aryl alkenamides derivatives as MCP-1 antagonists” (Millennium Pharmaceuticals, Inc., priority 1996, dated 2002)
Structures can show the parent of a compound that is named as a salt.

target: T1, MCP-1 receptor (Homo sapiens, UniProt P41597); assay: MCP-1 binding assay (125I-MCP-1, THP-1 cell membranes); details: 0.2 nM 125I-labeled MCP-1, averages of several or two experiments, read-out: Inhibition Of MCP-1 Binding IC50
T1 construct: host or cells: THP-1 cell membranes
Method: Membranes used in the MCP-1 binding assay were prepared from THP-1 cells (human monocytic cell line source—American Type Culture Collection, Tumor Immunology Bank #202, Rockville, Md., accession no. ATCC TIB 202). Cells were harvested by centrifugation and washed twice in ice-cold PBS (phosphate-buffered saline) and the cell pellet was frozen at −80° C. in some cases. Cells were resuspended in ice-cold lysis buffer 5mM HEPES (2-(4N-,[2-hydroxyethyl] piperazin-1-yl)-N′-(2-ethanesulfonic acid), pH 7.5, 2 mM EDTA (ethylenediaminetetraacetic acid), 5 ug/ml each leupeptin, aprotinin, chymostatin (protease inhibitors), and 100 ug/ml PMSF (phenylmethane sulfonyl fluoride—also a protease inhibitor)) at a concentration of 5×10^7 cells/ml. […] Typical binding assays used 10-20 ug/well of total membrane protein as determined with a standard protein assay (e.g. BioRad, Richmond, Calif.).
For binding, 10-20 ug total membrane protein were included in the binding reaction along with 0.2 nM I^125-labeled MCP-1 (Amersham, Arlington Heights, Ill.) with or without unlabeled competitor MCP-1 (Peprotech, Rocky Hill, N.J.) (at 250-500 nM). […] Filters were dried and counted in a Beta-Plate scintillation counter using standard scintillation fluid. […]
IC50s were calculated using a non-linear 3-parameter logistic curve fit. […]

T1 sequence (P41597 whole entry): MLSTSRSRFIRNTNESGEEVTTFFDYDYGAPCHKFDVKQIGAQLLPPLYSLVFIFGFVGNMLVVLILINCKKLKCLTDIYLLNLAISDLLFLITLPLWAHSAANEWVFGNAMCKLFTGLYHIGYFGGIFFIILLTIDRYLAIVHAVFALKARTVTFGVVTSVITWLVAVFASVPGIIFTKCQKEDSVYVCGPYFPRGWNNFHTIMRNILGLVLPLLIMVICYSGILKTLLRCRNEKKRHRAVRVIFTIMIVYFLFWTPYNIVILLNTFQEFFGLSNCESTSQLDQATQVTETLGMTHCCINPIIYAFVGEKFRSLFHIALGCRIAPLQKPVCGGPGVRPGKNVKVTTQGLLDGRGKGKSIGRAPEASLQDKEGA

For `O=C(C=CC=Cc1ccc(Cl)c(Cl)c1)NCCCN1CCOCC1` [Example 2, 5-(3,4-Dichloro-phenyl)-penta-2,4-dienoic Acid (3-morpholin-4-yl-propyl)-amide], the IC50 was 10.8 µM.

test system: not given; assay: not given; details: not given

First: O=C(/C=C/C=C/c1ccc(Cl)c(Cl)c1)NCCCN1CCCCC1 (as salt: HCl) [Example 1, 5-(3,4-Dichloro-phenyl)-penta-2,4-dienoic Acid (3-piperidin-1-yl-propyl)-amide-HCl]
Second: CC(/C=C/c1ccc(Cl)c(Cl)c1)=C\C(=O)NCCCN1CCCCC1 [Example 19, (2E,4E)-5-(3,4-Dichloro-phenyl)-3-methyl-penta-2,4-dienoic Acid (3-piperidin-1-yl-propyl)-amide]
The melting point of the first is higher: 192 to 194 °C for the first, 165 to 170 °C for the second.

First: O=C(C=CC=Cc1ccc(Cl)c(Cl)c1)NCCCN1CCOCC1 [Example 2, 5-(3,4-Dichloro-phenyl)-penta-2,4-dienoic Acid (3-morpholin-4-yl-propyl)-amide]
Second: CC(=C/C(=O)NCCCN1CCCCC1)/C=C/c1ccc(Cl)c(Cl)c1 [Example 20, (2Z,4E)-5-(3,4-Dichloro-phenyl)-3-methyl-penta-2,4-dienoic Acid (3-piperidin-1-yl-propyl)-amide]
The melting point of the first is higher: 130 to 132 °C for the first, 50 to 60 °C for the second.

First: Cc1ccc(/C=C/C=C/C(=O)NCCCN2CCCCC2)cc1 [Example 9, (2E,4E)-5-p-Tolyl-penta-2,4-dienoic Acid (3-piperidin-1-yl-propyl)-amide]
Second: O=C(/C=C/C=C/c1ccc(Cl)cc1)NCCCN1CCCCC1 [Example 12, (2E,4E)-5-(4-Chloro-phenyl)-penta-2,4-dienoic Acid (3-piperidin-1-yl-propyl)-amide]
The melting point of the first is lower: 40 to 50 °C for the first, 60 to 62 °C for the second.

First: COc1ccc(/C=C/C=C/C(=O)NCCCN2CCCCC2)cc1 [Example 10, (2E,4E)-5-(4-Methoxy-phenyl)-penta-2,4-dienoic Acid (3-piperidin-1-yl-propyl)-amide]
Second: O=C(/C=C/C=C/c1ccc([N+](=O)[O-])cc1)NCCCN1CCCCC1 [Example 11, (2E,4E)-5-(4-Nitro-phenyl)-penta-2,4-dienoic Acid (3-piperidin-1-yl-propyl)-amide]
The melting point of the first is lower: 69 to 73 °C for the first, 225 to 226 °C for the second.

First: O=C(/C=C/C=C/c1ccccc1)NCCCN1CCCCC1 [Example 13, (2E,4E)-5-Phenyl-penta-2,4-dienoic Acid (3-piperidin-1-yl-propyl)-amide]
Second: O=C(/C=C/C=C/c1ccc(-c2ccccc2)cc1)NCCCN1CCCCC1 [Example 14, (2E,4E)-5-Biphenyl-4-yl-penta-2,4-dienoic Acid (3-piperidin-1-yl-propyl)-amide]
The melting point of the first is lower: 111 to 115 °C for the first, 165 to 168 °C for the second.

First: O=C(/C=C/C=C/c1ccc2ccccc2c1)NCCCN1CCCCC1 [Example 15, (2E,4E)-5-Naphthalen-2-yl-penta-2,4-dienoic Acid (3-piperidin-1-yl-propyl)-amide]
Second: O=C(/C=C/C=C/c1cc(Cl)cc(Cl)c1)NCCCN1CCCCC1 [Example 16, (2E,4E)-5-(3,5-Dichloro-phenyl)-penta-2,4-dienoic Acid (3-piperidin-1-yl-propyl)-amide]
The melting point of the first is lower: 150 to 156 °C for the first, 186 to 187 °C for the second.

`O=C(/C=C/C=C/c1ccc(Cl)cc1Cl)NCCCN1CCCCC1` [Example 17, (2E,4E)-5-(2,4-Dichloro-phenyl)-penta-2,4-dienoic Acid (3-piperidin-1-yl-propyl)-amide] and `C/C(=C\C=C\C(=O)NCCCN1CCCCC1)c1ccc(Cl)c(Cl)c1` [Example 21, (2E,4E)-5-(3,4-Dichloro-phenyl)-hexa-2,4-dienoic Acid (3-piperidin-1-yl-propyl)amide] cannot be ordered by melting point: 66 to 69 °C for the first, 65 to 70 °C for the second.

Compound `O=C(/C=C/C=C(c1ccccc1)c1ccccc1)NCCCN1CCCCC1` [Example 22, (2E) -5,5-Diphenyl-penta-2,4-dienoic acid (3-piperidin-1-yl-propyl)-amide] has a melting point of 55 to 65 °C.
